Test results as given in the supplement of paper PMC10307832.

What was measured:
Test in all cases: relative viability (nuclei count vs DMSO), 5 days (fraction); higher = more cells survive
Masitinib + Linsitinib = compound: Cc1ccc(NC(=O)c2ccc(CN3CCN(C)CC3)cc2)cc1Nc1nc(-c2cccnc2)cs1 [Masitinib] + C[C@]1(O)C[C@@H](c2nc(-c3ccc4ccc(-c5ccccc5)nc4c3)c3c(N)nccn32)C1 [Linsitinib] (partner 1 µM)
Method in brief: (§1)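 A single step with final 0.05% Triton X-100, 1% formaldehyde and 1 ug/ml Hoechst fixed the cells and stained nuclei 5 days after treatment. Lung cancer cell lines in 1536-well plates had been treated by pin tool the day after seeding with one drug alone or a fixed anchor-drug dose plus five library-drug doses (not always all listed) in √10 steps, and nuclei were counted on 4× images. Relative viability is the ratio of nuclei in treated wells to nuclei in vehicle wells, taken as the median of duplicate plates.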

Masitinib + Navitoclax = compound: Cc1ccc(NC(=O)c2ccc(CN3CCN(C)CC3)cc2)cc1Nc1nc(-c2cccnc2)cs1 [Masitinib] + CC1(C)CCC(c2ccc(Cl)cc2)=C(CN2CCN(c3ccc(C(=O)NS(=O)(=O)c4ccc(N[C@H](CCN5CCOCC5)CSc5ccccc5)c(S(=O)(=O)C(F)(F)F)c4)cc3)CC2)C1 [Navitoclax] (partner 0.5 µM)
Method in brief: as §1

Masitinib + Palbociclib = compound: Cc1ccc(NC(=O)c2ccc(CN3CCN(C)CC3)cc2)cc1Nc1nc(-c2cccnc2)cs1 [Masitinib] + CC(=O)c1c(C)c2cnc(Nc3ccc(N4CCNCC4)cn3)nc2n(C2CCCC2)c1=O [Palbociclib] (partner 0.5 µM)
Method in brief: as §1

[1] = compound: CC1=CC(=CC=C1)NC2=NC(=CS2)C3=CC=NC=C3 + Cc1nc(NC(=O)N2CCC[C@H]2C(N)=O)sc1-c1ccnc(C(C)(C)C(F)(F)F)c1 [Alpelisib] (partner 2 µM)
Method in brief: as §1

## UMC-11
Masitinib + Linsitinib; first compound 0.01 µM
  relative viability: 0.982
Masitinib + Linsitinib; first compound 0.03162 µM
  relative viability: 1.12
Masitinib + Linsitinib; first compound 0.1 µM
  relative viability: 1.27
Masitinib + Linsitinib; first compound 0.3162 µM
  relative viability: 1.07
Masitinib + Linsitinib; first compound 1 µM
  relative viability: 1.25
Masitinib + Navitoclax; first compound 0.01 µM
  relative viability: 0.286
Masitinib + Navitoclax; first compound 0.03162 µM
  relative viability: 0.321
Masitinib + Navitoclax; first compound 0.1 µM
  relative viability: 0.353
Masitinib + Navitoclax; first compound 0.3162 µM
  relative viability: 0.338
Masitinib + Navitoclax; first compound 1 µM
  relative viability: 0.353
Masitinib + Palbociclib; first compound 0.01 µM
  relative viability: 0.323
Masitinib + Palbociclib; first compound 0.03162 µM
  relative viability: 0.384
Masitinib + Palbociclib; first compound 0.1 µM
  relative viability: 0.319
Masitinib + Palbociclib; first compound 0.3162 µM
  relative viability: 0.351
Masitinib + Palbociclib; first compound 1 µM
  relative viability: 0.304
[1]; first compound 0.08 µM
  relative viability: 1.02
[1]; first compound 0.253 µM
  relative viability: 0.91
[1]; first compound 0.8 µM
  relative viability: 0.993
[1]; first compound 2.53 µM
  relative viability: 0.993
[1]; first compound 8 µM
  relative viability: 1.06
